What was measured:
UHRF1 (108-286) (h) = target: T1, UHRF1 (108-286) (h) (Homo sapiens, UniProt Q96T88); experiment: Epigenetic binding assay, PHD domain; conditions: for inhibition at 10 µM: read-out: % Inhibition of Control Specific Binding
T1 construct: Eurofins CEREP (France), contract laboratory
T1 sequence (Q96T88 108-286): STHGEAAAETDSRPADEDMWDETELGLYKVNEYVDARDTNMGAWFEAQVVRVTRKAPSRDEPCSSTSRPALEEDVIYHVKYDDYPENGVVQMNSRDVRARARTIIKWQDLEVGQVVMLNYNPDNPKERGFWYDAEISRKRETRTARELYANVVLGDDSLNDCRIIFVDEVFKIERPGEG

H3K36 me2 = experiment: Cell-based detection methyl modifications; conditions: read-out: % Inhibition of Control Values
FBXL10 (h) = target: T2, FBXL10 (h) (Homo sapiens, UniProt Q8NHM5); experiment: Epigenetic enzyme assay, Demethylases (KDMs); format: biochemical; conditions: 10 μM; read-out: % Inhibition of Control Values
T2 sequence (Q8NHM5 1-1336): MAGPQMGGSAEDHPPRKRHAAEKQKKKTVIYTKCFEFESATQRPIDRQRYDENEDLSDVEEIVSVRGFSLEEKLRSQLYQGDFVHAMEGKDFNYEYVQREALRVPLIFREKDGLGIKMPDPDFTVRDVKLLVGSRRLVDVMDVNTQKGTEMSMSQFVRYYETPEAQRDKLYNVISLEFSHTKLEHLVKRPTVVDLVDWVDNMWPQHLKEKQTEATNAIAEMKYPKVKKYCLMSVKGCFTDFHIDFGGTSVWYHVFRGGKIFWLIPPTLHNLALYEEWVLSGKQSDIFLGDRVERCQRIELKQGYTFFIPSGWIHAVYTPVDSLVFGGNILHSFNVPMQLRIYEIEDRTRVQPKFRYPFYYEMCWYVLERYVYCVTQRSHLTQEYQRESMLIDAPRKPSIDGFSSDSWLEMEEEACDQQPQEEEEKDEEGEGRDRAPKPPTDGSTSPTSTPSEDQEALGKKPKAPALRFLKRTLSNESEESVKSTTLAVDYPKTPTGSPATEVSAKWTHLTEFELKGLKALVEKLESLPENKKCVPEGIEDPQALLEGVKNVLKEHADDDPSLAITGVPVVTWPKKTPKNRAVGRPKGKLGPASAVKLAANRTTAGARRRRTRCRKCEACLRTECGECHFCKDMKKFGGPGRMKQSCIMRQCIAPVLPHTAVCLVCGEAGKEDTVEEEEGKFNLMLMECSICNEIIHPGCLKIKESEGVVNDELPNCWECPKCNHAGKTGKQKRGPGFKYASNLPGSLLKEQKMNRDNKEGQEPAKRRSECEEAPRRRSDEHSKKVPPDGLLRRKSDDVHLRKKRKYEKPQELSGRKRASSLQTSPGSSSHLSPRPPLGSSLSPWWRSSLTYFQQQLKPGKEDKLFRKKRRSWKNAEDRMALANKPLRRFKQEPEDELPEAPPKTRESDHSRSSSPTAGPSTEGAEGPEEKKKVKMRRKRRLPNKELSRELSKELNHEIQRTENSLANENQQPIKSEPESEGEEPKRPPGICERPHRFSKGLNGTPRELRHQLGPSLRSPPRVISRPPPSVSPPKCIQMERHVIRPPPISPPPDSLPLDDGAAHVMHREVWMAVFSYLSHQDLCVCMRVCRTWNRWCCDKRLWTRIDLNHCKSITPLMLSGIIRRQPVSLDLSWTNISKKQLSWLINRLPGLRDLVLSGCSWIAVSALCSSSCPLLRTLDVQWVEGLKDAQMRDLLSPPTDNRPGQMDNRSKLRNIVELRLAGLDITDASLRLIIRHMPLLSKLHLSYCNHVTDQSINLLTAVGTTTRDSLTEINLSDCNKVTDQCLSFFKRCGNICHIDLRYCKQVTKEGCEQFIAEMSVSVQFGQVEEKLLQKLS

MYST3(h) = MYST3(h) (Homo sapiens, UniProt Q92794); experiment: Epigenetic enzyme assay, Histone acetyltransferases (HATs); format: biochemical; conditions: read-out: % Inhibition of Control Values
MYST3(h), sequence (Q92794 whole entry): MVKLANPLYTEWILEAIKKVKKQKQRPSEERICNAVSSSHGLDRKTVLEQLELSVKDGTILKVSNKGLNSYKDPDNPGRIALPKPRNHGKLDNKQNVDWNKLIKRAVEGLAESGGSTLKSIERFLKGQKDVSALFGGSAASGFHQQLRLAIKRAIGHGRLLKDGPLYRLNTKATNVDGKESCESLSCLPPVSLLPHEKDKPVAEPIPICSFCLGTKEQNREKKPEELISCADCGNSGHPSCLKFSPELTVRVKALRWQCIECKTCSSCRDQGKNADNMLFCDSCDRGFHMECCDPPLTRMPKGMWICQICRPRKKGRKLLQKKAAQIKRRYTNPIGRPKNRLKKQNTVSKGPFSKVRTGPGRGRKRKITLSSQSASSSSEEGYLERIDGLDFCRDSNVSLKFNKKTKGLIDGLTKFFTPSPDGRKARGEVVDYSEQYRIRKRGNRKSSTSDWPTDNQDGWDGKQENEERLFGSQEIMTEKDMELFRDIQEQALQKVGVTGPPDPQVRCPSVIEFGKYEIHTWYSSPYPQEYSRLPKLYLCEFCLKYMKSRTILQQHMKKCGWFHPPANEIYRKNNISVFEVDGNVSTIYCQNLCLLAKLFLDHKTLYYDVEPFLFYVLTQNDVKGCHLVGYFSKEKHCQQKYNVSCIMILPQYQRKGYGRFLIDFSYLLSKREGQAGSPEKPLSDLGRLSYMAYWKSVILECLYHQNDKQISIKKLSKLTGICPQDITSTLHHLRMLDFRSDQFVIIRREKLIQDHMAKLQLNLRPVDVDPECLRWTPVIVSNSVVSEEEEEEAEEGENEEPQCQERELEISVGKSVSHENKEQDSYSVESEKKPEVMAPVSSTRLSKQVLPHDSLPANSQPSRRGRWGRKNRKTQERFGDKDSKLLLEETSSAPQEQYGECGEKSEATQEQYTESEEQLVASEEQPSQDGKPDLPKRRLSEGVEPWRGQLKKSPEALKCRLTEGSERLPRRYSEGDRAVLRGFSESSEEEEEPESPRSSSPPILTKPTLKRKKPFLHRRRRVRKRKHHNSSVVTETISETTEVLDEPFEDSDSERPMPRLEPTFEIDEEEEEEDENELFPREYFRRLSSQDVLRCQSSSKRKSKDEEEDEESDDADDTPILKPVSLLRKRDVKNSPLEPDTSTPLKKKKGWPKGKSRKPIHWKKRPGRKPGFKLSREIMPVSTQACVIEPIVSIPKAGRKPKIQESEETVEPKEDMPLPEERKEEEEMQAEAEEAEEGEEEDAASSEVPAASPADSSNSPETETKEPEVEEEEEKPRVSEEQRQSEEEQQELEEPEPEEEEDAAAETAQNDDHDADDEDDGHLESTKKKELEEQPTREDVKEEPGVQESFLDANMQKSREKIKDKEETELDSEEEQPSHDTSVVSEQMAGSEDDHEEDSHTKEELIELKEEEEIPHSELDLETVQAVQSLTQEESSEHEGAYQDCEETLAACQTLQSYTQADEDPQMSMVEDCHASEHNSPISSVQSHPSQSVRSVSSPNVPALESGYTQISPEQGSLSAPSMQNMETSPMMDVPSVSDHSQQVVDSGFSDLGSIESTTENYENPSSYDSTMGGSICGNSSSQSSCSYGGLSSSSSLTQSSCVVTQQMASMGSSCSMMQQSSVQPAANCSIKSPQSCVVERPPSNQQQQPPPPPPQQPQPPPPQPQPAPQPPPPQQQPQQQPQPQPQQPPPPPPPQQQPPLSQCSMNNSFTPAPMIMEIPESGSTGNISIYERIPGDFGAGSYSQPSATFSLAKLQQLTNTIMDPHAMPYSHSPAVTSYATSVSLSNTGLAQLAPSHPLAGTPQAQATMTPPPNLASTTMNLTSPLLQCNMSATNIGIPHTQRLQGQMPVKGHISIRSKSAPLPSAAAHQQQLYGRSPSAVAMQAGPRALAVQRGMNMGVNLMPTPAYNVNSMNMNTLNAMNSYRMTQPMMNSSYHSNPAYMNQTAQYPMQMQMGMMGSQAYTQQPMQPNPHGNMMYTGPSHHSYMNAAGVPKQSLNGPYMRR

G9a (h) = target: T3, G9a (h) (Homo sapiens, UniProt Q96KQ7); experiment: Epigenetic enzyme assay, Methyltransferases (MTs); format: biochemical; conditions: for % Inhibition of Control Values / inhibition at 10 µM: 10 μM; for inhibition at 10 µM: read-out: % Inhibition of Control Values; for IC50: Table 11, inhibition/concentration-response curve
T3 sequence (Q96KQ7 1-1210): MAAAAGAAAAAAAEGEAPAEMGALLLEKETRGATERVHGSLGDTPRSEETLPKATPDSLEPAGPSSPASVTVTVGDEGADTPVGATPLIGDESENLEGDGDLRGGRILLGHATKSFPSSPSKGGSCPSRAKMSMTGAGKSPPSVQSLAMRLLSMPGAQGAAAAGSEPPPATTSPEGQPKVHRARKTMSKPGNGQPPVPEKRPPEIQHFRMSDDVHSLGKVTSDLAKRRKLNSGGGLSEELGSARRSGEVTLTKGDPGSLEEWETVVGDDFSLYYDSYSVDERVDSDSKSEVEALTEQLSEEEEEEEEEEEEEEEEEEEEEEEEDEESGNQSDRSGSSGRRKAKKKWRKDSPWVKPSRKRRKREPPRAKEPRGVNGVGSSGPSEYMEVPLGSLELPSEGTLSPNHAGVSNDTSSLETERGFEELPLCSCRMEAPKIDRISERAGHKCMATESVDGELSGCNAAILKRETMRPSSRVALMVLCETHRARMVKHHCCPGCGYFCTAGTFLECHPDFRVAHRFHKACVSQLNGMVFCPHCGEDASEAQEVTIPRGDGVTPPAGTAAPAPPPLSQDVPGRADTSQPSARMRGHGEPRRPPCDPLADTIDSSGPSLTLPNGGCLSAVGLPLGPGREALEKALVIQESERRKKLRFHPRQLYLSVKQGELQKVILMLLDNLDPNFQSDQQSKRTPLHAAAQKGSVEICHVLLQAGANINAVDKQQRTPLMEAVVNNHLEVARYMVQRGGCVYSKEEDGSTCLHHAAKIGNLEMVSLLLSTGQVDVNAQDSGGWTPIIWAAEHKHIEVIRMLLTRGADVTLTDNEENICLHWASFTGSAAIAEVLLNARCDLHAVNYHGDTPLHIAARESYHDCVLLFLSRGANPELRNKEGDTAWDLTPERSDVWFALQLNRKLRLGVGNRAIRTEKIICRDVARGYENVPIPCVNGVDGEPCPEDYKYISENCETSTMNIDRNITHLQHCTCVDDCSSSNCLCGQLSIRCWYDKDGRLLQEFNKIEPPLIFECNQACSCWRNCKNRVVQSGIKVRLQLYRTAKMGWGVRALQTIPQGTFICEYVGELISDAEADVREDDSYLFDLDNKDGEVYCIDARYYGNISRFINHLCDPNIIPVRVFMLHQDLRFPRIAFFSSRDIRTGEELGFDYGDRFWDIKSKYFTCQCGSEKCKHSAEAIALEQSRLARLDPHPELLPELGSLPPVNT

## CC(C)=CCC[C@@H]1C(O)Oc2c(C)cc(O)c3c2[C@H]1CC[C@H]3C (stereo partly shown) [Compound 2, 5,18-epoxyserrulat-14-en-8,18-diol]
UHRF1 (108-286) (h); 10 μM
  inhibition at 10 µM: 34%
H3K36 me2
  inhibition at 10 µM: 7%
FBXL10 (h)
  inhibition at 10 µM: 7%
MYST3(h)
  inhibition at 10 µM: 11%
G9a (h)
  % Inhibition of Control Values: weaker
  inhibition at 10 µM: 64%
  IC50: 5.4 µM

## CC(C)=CCC[C@@H]1COc2c(C)cc(O)c3c2[C@H]1CC[C@H]3C [Compound 3, 5,18-epoxy-8-hydroxyserrulat-14-ene]
UHRF1 (108-286) (h); 10 μM
  inhibition at 10 µM: 29%
H3K36 me2
  inhibition at 10 µM: -8%
FBXL10 (h)
  inhibition at 10 µM: 22%
MYST3(h)
  inhibition at 10 µM: 3%
G9a (h)
  % Inhibition of Control Values: weaker
  inhibition at 10 µM: 49%

## CC(C)=CCC[C@H](CO)[C@@H]1CC[C@@H](C)c2c1cc(C)c(O)c2O [Compound 1, 7,8,18-trihydroxyserrulat-14-ene]
UHRF1 (108-286) (h); 10 μM
  % Inhibition of Control Specific Binding: good inhibitory activity
  inhibition at 10 µM: 73%
UHRF1 (108-286) (h); 3.0E−05M
  inhibition of binding, 1st: 81.5
  inhibition of binding, 2nd: 83.3
  inhibition of binding, Mean: 82.4
UHRF1 (108-286) (h); 3.0E−06M
  inhibition of binding, 1st: −1.8
  inhibition of binding, 2nd: −0.1
  inhibition of binding, Mean: −0.9
UHRF1 (108-286) (h); 3.0E−07M
  inhibition of binding, 1st: −12.1
  inhibition of binding, 2nd: −13.2
  inhibition of binding, Mean: −12.7
UHRF1 (108-286) (h); 3.0E−08M
  inhibition of binding, 1st: −13.3
  inhibition of binding, 2nd: −12.6
  inhibition of binding, Mean: −12.9
UHRF1 (108-286) (h); 3.0E−09M
  inhibition of binding, 1st: −11.9
  inhibition of binding, 2nd: −13.1
  inhibition of binding, Mean: −12.5
UHRF1 (108-286) (h); Table 9, inhibition/concentration-response curve
  IC50: 11 µM
H3K36 me2
  inhibition at 10 µM: 10%
FBXL10 (h)
  inhibition at 10 µM: 37%
MYST3(h)
  inhibition at 10 µM: 18%
G9a (h)
  % Inhibition of Control Values: strong inhibitor
  inhibition at 10 µM: 86%
  IC50: 11 µM

From US11331299B2, “Medicinal use of serrulatane diterpenes” (The University of Sydney, priority 2016, dated 2022)
